Legend:
[1] = target: T1, Estrogen receptor (Homo sapiens, UniProt P03372); assay: In vitro inhibition of [3H]17-beta-estradiol binding to human estrogen receptor alpha
T1 sequence (P03372 whole entry): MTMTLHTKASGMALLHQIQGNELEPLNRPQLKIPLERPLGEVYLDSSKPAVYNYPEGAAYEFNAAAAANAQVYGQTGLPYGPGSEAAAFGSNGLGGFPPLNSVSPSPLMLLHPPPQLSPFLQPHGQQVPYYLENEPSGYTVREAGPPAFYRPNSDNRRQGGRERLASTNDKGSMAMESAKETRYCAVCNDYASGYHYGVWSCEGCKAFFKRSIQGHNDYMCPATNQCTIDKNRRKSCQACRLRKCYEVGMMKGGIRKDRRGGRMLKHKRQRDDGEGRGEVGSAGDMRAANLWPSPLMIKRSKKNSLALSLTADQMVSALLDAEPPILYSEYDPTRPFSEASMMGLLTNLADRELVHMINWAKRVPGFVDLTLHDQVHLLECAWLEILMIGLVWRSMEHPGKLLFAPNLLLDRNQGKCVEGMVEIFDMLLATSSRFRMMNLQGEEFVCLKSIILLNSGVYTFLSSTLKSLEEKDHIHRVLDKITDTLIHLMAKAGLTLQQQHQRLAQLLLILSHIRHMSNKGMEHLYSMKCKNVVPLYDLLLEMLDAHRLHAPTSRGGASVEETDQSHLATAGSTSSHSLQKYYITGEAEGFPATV

[2] = target: T1, Estrogen receptor; assay: In vitro antagonist effect on estrogen receptor alpha transcriptional activation in MCF-7 cells against 10 pM 17-beta-estradiol
[3] = target: Estrogen receptor beta (Homo sapiens, UniProt Q92731)
Sequence of Estrogen receptor beta (Q92731 whole entry): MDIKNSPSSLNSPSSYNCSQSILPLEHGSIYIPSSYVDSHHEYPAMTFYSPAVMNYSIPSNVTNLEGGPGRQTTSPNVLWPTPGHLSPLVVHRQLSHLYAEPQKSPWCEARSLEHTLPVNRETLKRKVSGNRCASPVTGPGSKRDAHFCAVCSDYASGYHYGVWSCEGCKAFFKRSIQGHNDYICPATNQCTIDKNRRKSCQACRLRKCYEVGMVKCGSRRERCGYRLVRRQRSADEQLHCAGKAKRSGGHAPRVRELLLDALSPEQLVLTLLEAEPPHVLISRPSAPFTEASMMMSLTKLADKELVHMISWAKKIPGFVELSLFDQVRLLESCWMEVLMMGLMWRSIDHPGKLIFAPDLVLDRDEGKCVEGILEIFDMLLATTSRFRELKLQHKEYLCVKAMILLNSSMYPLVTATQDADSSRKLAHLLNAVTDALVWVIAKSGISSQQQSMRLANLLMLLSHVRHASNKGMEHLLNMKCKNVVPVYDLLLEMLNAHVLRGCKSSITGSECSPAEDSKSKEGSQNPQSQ
Description: In vitro inhibitory concentration against [3H]17-beta-estradiol binding to human estrogen receptor 2

| SMILES | IC50 [1] | IC50 [2] | IC50 [3] |
| --- | --- | --- | --- |
| Cc1c(-c2ccc(O)cc2)n(CCCCCCN2CCCC2)c2ccc(O)cc12 | 25 nM | 69 nM | 242 nM |
| Cc1c(-c2ccc(O)cc2)n(Cc2ccc(OCCN3CCCCC3)cc2)c2ccc(O)cc12 [PIPENDOXIFENE] | – | – | 40 nM |

— ChEMBL document CHEMBL1134479 (J Med Chem, 2001)
